Measurements: PMC5133556, “Design of a hydroxyapatite-binding antimicrobial peptide with improved retention and antibacterial efficacy for oral pathogen control” (Scientific Reports, 2016)
≈ marks a conversion by molar mass, not a printed value. Residues, ends and D or L forms follow the SMILES beside them.

How the values were obtained:
S. mutans = assay: Time-kill assay; assay type: cell-based, Streptococcus mutans; details: 0.12%, 10^6 CFU/mL, CFU counts
Protocol: The time-kill kinetics of HBAMP against S. mutans was determined by time-kill assay as previously described. S. mutans was grown to exponential phase and diluted to 10^6 CFU/mL in growth medium. […] Bacterial suspension in other tubes that were added with 0.12% CHX and PBS served as the positive and blank control groups, respectively. At time points of 0, 10, 20, 30, 40, 60, and 90 min, 10 μL of cell suspension was collected, serially diluted in PBS and then 50 μL of aliquots were plated onto BHI agar plates. Colony forming units were counted after the plates were incubated anaerobically at 37 °C for 24 h.

[1] = test system: Actinomyces viscosus (ATCC 19246); assay type: cell-based; details: ATCC 19246, 24 h
Protocol: (§1) Streptococcus sanguinis (ATCC 10556), Actinomyces viscosus (ATCC 19246), Streptococcus mutans (ATCC 25175), were grown in Brain Heart Infusion (BHI; Difco, Detroit, MI, USA) culture medium. Lactobacillus acidophilus (ATCC 4356) was grown in de Man, Rogosa and Sharpe (MRS; Difco, Detroit, MI, USA) culture medium. BHIS (BHI with 2% sucrose) was used for growing S. mutans biofilm. All cultures were grown anaerobically (80% N2, 10% H2 and 10% CO2) at 37 °C. According to the growth curve of bacteria, the exponentially growing cells were harvested by centrifugation and diluted in BHI or MRS to 10^6 CFU/mL based on a regression line derived from McFarland turbidity standards (Pro-Lab Diagnostics, Richmond Hill, ON, Canada).
(§2) MIC and MBC assays were conducted according to the consensus guidelines developed by the Clinical and Laboratory Standards Institute (CLSI)[24]. Two-fold serial dilutions of peptides were prepared in culture medium at a volume of 200 μl/well in 96-well plates and the final concentrations of peptides ranged from 31.25 μg/ml to 2000 μg/ml. Chlorhexidine (0.12%) and culture medium were included as the positive and control group, respectively. Then each well was seeded with 20 μL of bacterial cell suspension (10^6 CFU/mL). The plates were incubated anaerobically at 37 °C for 24 h. The MIC was defined as the lowest concentration of peptide that prevents visible growth of the bacteria tested. […] The MBC was defined as the lowest concentration of peptide resulting in no colony formation on agar plates. All determinations were made from triplicate experiments.

[2] = test system: Lactobacillus acidophilus (ATCC 4356); assay type: cell-based; details: ATCC 4356, 24 h
Protocol: as §1, §2

[3] = test system: Streptococcus mutans (ATCC 25175); assay type: cell-based; details: ATCC 25175, 24 h
Protocol: as §1, §2

[4] = test system: Streptococcus sanguinis (ATCC 10556); assay type: cell-based; details: ATCC 10556, 24 h
Protocol: as §1, §2

S. mutans biofilm = assay type: cell-based; details: 250 μg/ml (2× MIC), 10 min treatment of 12 h biofilm on HAp
Protocol: S. mutans biofilms were grown on the surface of HAp disks that were placed in 24-well plate. Each well of the plate was inoculated with 2 ml of S. mutans in BHIS (10^6 CFU/mL). After incubation anaerobically at 37 °C for 12 h, the HAp disks were washed twice with sterile deionized water and then respectively treated with HBAMP (2× and 4× MIC) and CHX (0.12%) for 10 min. Then biofilms were stained for 20 min in the dark using the LIVE/DEAD® BacLight^TM Bacterial Viability Kit. The biofilm without treatment served as control. Stained biofilms were photographed by CLSM with a 20× objective. Three independent biofilm experiments were performed.

in vitro = in vitro ADME; details: both sexes, human, cerebrospinal or other body fluid
Protocol: The protocols in this section were approved by the Ethics Committee of Zhongshan Hospital, Xiamen University. The methods employed were performed in accordance with the approved guidelines. After acquiring informed consent, human saliva was collected from individual volunteers (two males and two females; Minimum age: 22; maximum age: 28) in the morning prior to oral cleaning. The collected saliva samples were centrifuged at 12,000 rpm for 20 min. The supernatant was collected and filtered through the […] membrane filter to remove any debris. HBAMP was added into the human saliva to achieve the final concentration of 500 μg/ml. The saliva with HBAMP was incubated at 37 °C. At 0, 5, 20 and 60 min, 1 ml samples were taken from the total sample and served in the specific sample bottles, the machine will automatically extract samples from the bottles to detect. The samples were analysed by reversed-phase HPLC using Zorbax Eclipse XDB-C18 analytical column (150 × 4.6 mm, Agilent Technologies, Inc., Santa Clara, CA, USA) protected by a XDB-C18 guard column (4 × 4 mm). For the elution of HBAMP, a flow rate of 1.2 mL/min and a linear gradient from 88:12 to 65:35 (0.1% TFA in water: 0.1% TFA in acetonitrile) for 10 min were employed. Total run time of HPLC-UV (215 nm) analysis was 15 min and the injection volume was set at 40 μL.

Structure (SMILES)	time to kill S. mutans (S. mutans)	MBC, A. viscosus [1]	MIC, A. viscosus [1]	MBC, L. acidophilus [2]	MIC, L. acidophilus [2]	MBC, S. mutans [3]	MIC, S. mutans [3]	MBC, S. sanguinis [4]	MIC, S. sanguinis [4]	bacteria killed in S. mutans biofilm (S. mutans biofilm)	remaining at 1 h, 500 μg/ml (in vitro)
[H]/N=C(\N/C(=N/[H])NCCCCCCNC(=N)NC(=N)Nc1ccc(Cl)cc1)Nc1ccc(Cl)cc1 [CHX, chlorhexidine]	≤ 10 min										
CC(C)C[C@H](NC(=O)[C@H](Cc1ccc(O)cc1)NC(=O)[C@H](Cc1c[nH]cn1)NC(=O)[C@H](CC(N)=O)NC(=O)[C@@H](N)CC(N)=O)C(=O)N1CCC[C@H]1C(=O)N[C@@H](CCCNC(=N)N)C(=O)NCC(=O)NCC(=O)NCC(=O)N[C@@H](CCCCN)C(=O)N[C@@H](CCCCN)C(=O)N[C@H](C(=O)N[C@H](C(=O)N[C@@H](Cc1ccccc1)C(=O)N[C@@H](Cc1c[nH]c2ccccc12)C(=O)N[C@H](C(=O)N[C@@H](CCCCN)C(=O)N[C@@H](Cc1ccccc1)C(=O)N[C@@H](CCCCN)C(=O)O)C(C)C)C(C)C)C(C)C [HBAMP] (H-NNHYLPRGGGKKVVFWVKFK-OH)		500 µg/mL (≈ 211 µM)	250 µg/mL (≈ 105 µM)	250 µg/mL (≈ 105 µM)	125 µg/mL (≈ 52.6 µM)	250 µg/mL (≈ 105 µM)	125 µg/mL (≈ 52.6 µM)	2000 µg/mL (≈ 842 µM)	500 µg/mL (≈ 211 µM)	approximately 44.7%	80.5%
CC(C)[C@H](NC(=O)[C@H](Cc1c[nH]c2ccccc12)NC(=O)[C@H](Cc1ccccc1)NC(=O)[C@@H](NC(=O)[C@@H](NC(=O)[C@H](CCCCN)NC(=O)[C@@H](N)CCCCN)C(C)C)C(C)C)C(=O)N[C@@H](CCCCN)C(=O)N[C@@H](Cc1ccccc1)C(=O)N[C@@H](CCCCN)C(=O)O [KSLW, reference compound] (H-KKVVFWVKFK-OH)		500 µg/mL (≈ 382 µM)	125 µg/mL (≈ 95.5 µM)	125 µg/mL (≈ 95.5 µM)	62.5 µg/mL (≈ 47.8 µM)	125 µg/mL (≈ 95.5 µM)	62.5 µg/mL (≈ 47.8 µM)	2000 µg/mL (≈ 1530 µM)	250 µg/mL (≈ 191 µM)		
